Paper PMC8566422, “Thermodynamics of semi-specific ligand recognition: the binding of dipeptides to the E.coli dipeptide binding protein DppA” (European Biophysics Journal, 2021)
Where a SMILES comes first, the peptide text is derived from it.

Molecular target: T1, DppA (E. coli dipeptide binding protein) (Escherichia coli, UniProt P23847)
T1 sequence (P23847 29-535): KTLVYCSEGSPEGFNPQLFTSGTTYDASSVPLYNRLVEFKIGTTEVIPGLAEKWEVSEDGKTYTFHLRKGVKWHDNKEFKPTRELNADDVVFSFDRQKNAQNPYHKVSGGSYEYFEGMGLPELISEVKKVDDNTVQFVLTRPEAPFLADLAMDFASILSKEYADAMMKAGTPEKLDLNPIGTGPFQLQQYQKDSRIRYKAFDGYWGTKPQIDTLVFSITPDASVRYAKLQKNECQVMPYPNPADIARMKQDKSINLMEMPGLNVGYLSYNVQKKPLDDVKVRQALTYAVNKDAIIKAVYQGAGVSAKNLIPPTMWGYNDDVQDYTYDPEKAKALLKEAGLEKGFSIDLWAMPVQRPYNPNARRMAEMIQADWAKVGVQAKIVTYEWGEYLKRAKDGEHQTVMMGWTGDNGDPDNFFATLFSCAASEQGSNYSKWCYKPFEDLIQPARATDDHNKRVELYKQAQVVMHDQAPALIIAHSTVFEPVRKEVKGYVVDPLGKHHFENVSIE
Assay: isothermal titration calorimetry
Description: isothermal titration calorimetry on DppA (E. coli dipeptide binding protein)

SMILES	Kd
C[C@H](N)C(=O)N[C@@H](Cc1ccccc1)C(=O)O [AF, Alanine–Phenylalanine (A–F)]	357 nM
C[C@H](N)C(=O)N[C@@H](C)C(=O)O [AA, Alanine–Alanine (A–A)] (H-Ala-Ala-OH)	37 nM
